Measurements: PMC3671111, “A Phase I, open-label, randomized, crossover study in three parallel groups to evaluate the effect of Rifampicin, Ketoconazole, and Omeprazole on the pharmacokinetics of THC/CBD oromucosal spray in healthy volunteers” (SpringerPlus, 2013)
Values joined by “and” are separate entries in the source; they are usually repeats but may differ in a detail not shown here. Identical values can stand only once. Like-named read-outs stand apart in the source and are kept apart here. Marks after values point to notes of the source that are not given here.

Key:
[1] = male, human, in vivo
[2] = Phase I drug-drug interaction PK, Group 1: THC/CBD spray alone or with rifampicin, plasma by GC-MS; settings: for AUC(0-inf) / AUC(0-t) / CL/F / Cmax / Kel / Varea/F / t½ / Tmax: n = 12, plasma; for AUC(0-inf) / AUC(0-t) / CL/F / Cmax / Kel / Varea/F / t½: mean (SD); for Tmax: median (range)
Protocol: (§1) Subjects received rifampicin on Days 1-9. […] Subjects received ketoconazole on Days 1-4.
(§2) Blood samples were collected at specified times and stored on ice (except rifampicin PK samples which were stored in iced water) prior to processing and storage. Plasma samples were separated by centrifugation (approximately 2500 rpm × 15 minutes at 4°C). Samples were stored in 4 mL amber glass screw top glass vials with PTFE lined screw caps labelled with Guys Drug Research (Quintiles Limited) labels. The aliquots were stored in clearly labelled containers in a freezer set at or below -20°C, until shipped for assay. Samples were shipped on dry ice at the appropriate time-points.
(§3) The assay validation was undertaken by Advanced Bioanalytical Service Laboratories (London, UK), who developed the technique after reviewing the literature, which was based on the methodology adopted by three different groups (Foltz et al. [1983]; Goodall & Basteyns [1995]; Kemp et al. [1995]), and designed with reference to FDA guidelines for industry (FDA Guidance for Industry [2012]). The method utilised protein precipitation, solvent extraction and derivatisation for the sample preparation and then sample analysis by capillary gas chromatography and detection by a mass spectrometer (GC-MS). The validation procedure investigated the calibration model with the best regression fit over the concentration range 0.1 - 100 ng/mL for CBD, THC and 11-OH-THC, as well as precision and accuracy of the method, stability, carry-over, and specificity.
(§4) Human plasma from healthy volunteers was used to prepare the standards and quality control (QC) samples, with analytes extracted using hexane/ethyl acetate (7:1 ratio), derivatised with N,O-Bis(trimethylsilyl)trifluoroacetamide. Analytic grade THC (Sigma, UK), CBD (Sigma, UK) and 11-OH-THC (Radian International and Cerillant, UK) were obtained, and three sets of CBD, THC and 11-OH-THC were used to support the study. Deuterated THC-d3 (Sigma, UK) was used as the internal standard. The GC-MS equipment was a Hewlett Packard 6890 Gas Chromatograph attached to a Hewlett Packard 5973 Mass Selective Detector. Data handling was carried out using an MS Chemstation System and the peak area ratio of the analytes to the internal standard was calculated in Excel (2000). The concentrations were calculated from the ratio data using least squares ln(y) on ln(x) regression performed in Excel (2000), and were then checked manually. Regression analysis was undertaken to find the regression model that best described the calibration data (for details, see ([Miller & Miller 1992])).
(§5) A 0.5 mL aliquot of test sample, QC or blank plasma was placed into a test tube. The blank plasma was spiked with 50 μL of the appropriate standard solution to produce the calibration standards. 50 μL of the internal standard was added to each test tube. The samples were then diluted by the addition of 500 μL of 0.1% (w/v) ascorbic acid and the protein precipitated by the addition of 1.0 mL of acetonitrile. The proteins were removed by centrifugation and the supernatant concentrated to 1 mL using nitrogen at 50 °C. The samples were then basified by the addition of 300 μL of 5M sodium hydroxide and the analytes extracted by the addition of 2.0 mL of 7:1 hexane:ethyl acetate. After mixing for 16 minutes the tubes were centrifuged and the top layer transferred into clean 3 dram vials. The solvent was removed using nitrogen at 70 °C and the dried extract resuspended in 100 μL of BSTFA and transferred to microvials, capped and placed at 70 °C for 30 minutes to derivatise the analytes. The microvials were then cooled and loaded onto the autosampler tray for analysis where 1 μL was injected onto the GC-MS system.

[3] = Phase I drug-drug interaction PK, Group 3: THC/CBD spray alone or with omeprazole, plasma by GC-MS; settings: for AUC(0-inf) / AUC(0-t) / CL/F / Cmax / Kel / Varea/F / t½ / Tmax: n = 12, plasma; for AUC(0-inf) / AUC(0-t) / CL/F / Cmax / Kel / Varea/F / t½: mean (SD); for Tmax: median (range); for Cmax and AUC % Co-efficient of Variation (CV%) range: inter-subject variability
Protocol: as §1, §2, §3, §4, §5

[4] = Phase I drug-drug interaction PK, Group 2: THC/CBD spray alone or with ketoconazole, plasma by GC-MS; settings: for AUC(0-inf) / AUC(0-t) / CL/F / Cmax / Kel / Varea/F / t½ / Tmax: plasma; for AUC(0-inf) / AUC(0-t) / CL/F / Cmax / Kel / Varea/F / t½: mean (SD); for Tmax: median (range)
Protocol: as §1, §2, §3, §4, §5

[5] = Rifampicin and THC/CBD spray vs THC/CBD spray alone, no-interaction range 0.80 to 1.25
[6] = THC/CBD spray 4 sprays and rifampicin 600 mg after repeated daily dosing
[7] = THC/CBD spray alone, single dose 4 sprays (10.8/10 mg), rifampicin group
[8] = THC/CBD spray co-administered with rifampicin vs alone
[9] = Omeprazole and THC/CBD spray vs THC/CBD spray alone, no-interaction range 0.80 to 1.25
[10] = THC/CBD spray 4 sprays and omeprazole 40 mg at end of 6-day dosing period
[11] = THC/CBD spray alone, single dose 4 sprays (10.8/10 mg), omeprazole group
[12] = THC/CBD spray co-administered with omeprazole vs alone
[13] = Ketoconazole and THC/CBD spray vs THC/CBD spray alone, no-interaction range 0.80 to 1.25
[14] = THC/CBD spray 4 sprays and ketoconazole 400 mg at end of 5-day dosing period, n = 11
[15] = THC/CBD spray alone, single dose 4 sprays (10.8/10 mg), ketoconazole group, n = 12
[16] = THC/CBD spray co-administered with ketoconazole vs alone

## CO[C@H]1/C=C/O[C@@]2(C)Oc3c(C)c(O)c4c(O)c(c(/C=N/N5CCN(C)CC5)c(O)c4c3C2=O)NC(=O)/C(C)=C\C=C\[C@H](C)[C@H](O)[C@@H](C)[C@@H](O)[C@@H](C)[C@H](OC(C)=O)[C@@H]1C [Rifampicin, rifampicin]
[1]; 9 days
  Dysgeusia (TEAE): 1 (8) No. of subjects (%)
  Headache (TEAE): 0 No. of subjects (%)
  Somnolence (TEAE): 0 No. of subjects (%)

## COc1ccc2[nH]c([S+]([O-])Cc3ncc(C)c(OC)c3C)nc2c1 (stereo not drawn) [Omeprazole, omeprazole]
[1]; 5 days
  Dizziness (TEAE): 0 No. of subjects (%)
  Dizziness postural (TEAE): 0 No. of subjects (%)
  Dry mouth (TEAE): 0 No. of subjects (%)
  Headache (TEAE): 1 (8) No. of subjects (%)
  Somnolence (TEAE): 0 No. of subjects (%)

## CCCCCc1cc(O)c2c(c1)OC(C)(C)[C@@H]1CCC(C)=C[C@@H]21 [THC, Δ9-tetrahydrocannabinol]
[2]; [5]
  Geometric mean ratio of AUC(0-inf), point estimate: 0.761
  Geometric mean ratio of AUC(0-t), point estimate: 0.711
  Geometric mean ratio of Cmax, point estimate: 0.614
[2]; [6]
  AUC(0-inf): 7.53 (2.99) h*ng/mL
  AUC(0-t): 6.53 (2.70) h*ng/mL
  CL/F: 1595 L/h and 1595 (473) L/h
  Cmax: 1.88 (1.07) ng/mL
  Kel: 0.189 (0.071) h^-1
  Varea/F: 10297 (5888) L
  t½: 4.93 (3.91) h
  Tmax: 1.75 (1.25-2.57) h
[2]; [7]
  AUC(0-inf): 9.86 (3.35)^a h*ng/mL
  AUC(0-t): 9.10 (2.98) h*ng/mL
  CL/F: 1207 L/h and 1207 (373)^a L/h
  Cmax: 2.94 (1.21) ng/mL
  Kel: 0.197 (0.093)^a h^-1
  Varea/F: 7625 (4326)^a L
  t½: 4.68 (3.42) ^a h
  Tmax: 1.01 (0.50-6.02) h
[2]; [8]
  % change in mean t1/2: +5%
  % change in median Tmax: +73%
[2]; THC/CBD spray with rifampicin vs THC/CBD spray alone
  Change in mean Cmax: -36%
[2]; after multiple dose rifampicin treatment vs THC/CBD spray alone
  Change in mean CL/F: +32%
[3]; [9]
  Geometric mean ratio of AUC(0-inf), point estimate: 0.962
  Geometric mean ratio of AUC(0-t), point estimate: 0.964
  Geometric mean ratio of Cmax, point estimate: 1.125
[3]; [10]
  AUC(0-inf): 8.10 (4.78) h*ng/mL
  AUC(0-t): 7.41 (4.75) h*ng/mL
  CL/F: 2284 (2520) L/h
  Cmax: 2.48 (1.06) ng/mL
  Kel: 0.357 (0.218) h^-1
  Varea/F: 6052 (3384) L
  t½: 2.37 (0.92) h
  Tmax: 1.25 (1.00-1.75) h
[3]; [11]
  AUC(0-inf): 9.39 (8.81) h*ng/mL
  AUC(0-t): 8.76 (8.62) h*ng/mL
  CL/F: 2161 (1990) L/h
  Cmax: 2.50 (1.85) ng/mL
  Kel: 0.305 (0.109) h^-1
  Varea/F: 6889 (5296) L
  t½: 2.65 (1.25) h
  Tmax: 1.25 (0.77-3.02) h
[3]; THC/CBD spray at end of 6-day omeprazole dosing
  Plasma concentrations and PK parameters compared with THC/CBD spray alone: similar
[3]; [12]
  % change in Tmax: 0%
  % change in t1/2: -11%
[3]; THC/CBD spray with omeprazole vs alone
  Differences in CL/F on co-administration with omeprazole: No significant differences
[3]; at the clinically relevant dose of THC/CBD spray investigated
  Substrate for the isoenzyme CYP2C19 (conclusion from omeprazole interaction): not substrates
[3]; THC/CBD spray alone, omeprazole group
  Cmax and AUC % Co-efficient of Variation (CV%) range: 74-98%
[3]; THC/CBD spray in combination with omeprazole
  Cmax and AUC % Co-efficient of Variation (CV%) range: 43-64%
[4]; [13]
  Geometric mean ratio of AUC(0-inf), point estimate: 1.840
  Geometric mean ratio of AUC(0-t), point estimate: 1.770
  Geometric mean ratio of Cmax, point estimate: 1.252
[4]; [14]
  AUC(0-inf): 16.76 (13.80) h*ng/mL
  AUC(0-t): 15.38 (13.43) h*ng/mL
  CL/F: 920 L/h and 920 (450) L/h
  Cmax: 3.36 (1.65) ng/mL
  Kel: 0.189 (0.078) h^-1
  Varea/F: 5111 (2221) L
  t½: 4.43 (2.19) h
  Tmax: 1.75 (1.00-3.00) h
[4]; [15]
  AUC(0-inf): 9.22 (5.94)^a h*ng/mL
  AUC(0-t): 8.19 (5.67) h*ng/mL
  CL/F: 1504 L/h and 1504 (688)^a L/h
  Cmax: 2.65 (1.32) ng/mL
  Kel: 0.258 (0.092)^a h^-1
  Varea/F: 6328 (4164)^a L
  t½: 3.07 (1.31)^a h
  Tmax: 1.50 (0.75-6.00) h
[4]; [16]
  % change in mean Tmax: +17%
  % change in t1/2: +44%
[4]; THC/CBD spray with ketoconazole vs THC/CBD spray alone
  Change in mean Cmax: +27%
[4]; co-administered with ketoconazole vs THC/CBD spray alone
  Change in mean CL/F: -39%
[4]; suggested by increased exposure with ketoconazole
  Substrate for the isoenzyme CYP3A4 (conclusion from ketoconazole interaction): substrates
